Source: US20260226470A1, “HEPATITIS B COMBINATION THERAPIES” (Aligos Therapeutics, Inc., priority 2023, published 2026)
Oligonucleotides are written 5' to 3', each unit as a sugar letter and its base; * is a phosphorothioate linkage, no mark a phosphodiester; rarer units and linkages stand in square brackets, end groups in braces. Plain capitals give the bases only. m = 2'-O-methyl; f = 2'-fluoro

How the values were obtained:
HBV = experiment: siRNA treatment followed by CAM add-on, in vivo in mice, Example 3; conditions: FIGS. 13A-13B, 16A-16B; CAM 30 mpk BID day 63-98; siRNA-2 10 mpk SC QW day 0-98
Description: In the following example, initial treatment with an siRNA, followed by CAM add-on, was tested in vivo in mice.
The study design is described below in Table 9.
QW dosing of siRNA-2 was continued until the end of the study (day 98). HBV DNA, HBsAg, and HBeAg were measured weekly through day 98.

[1] = test system: adeno-associated virus-hepatitis B virus (AAV-HBV) mice; experiment: In vivo compound efficacy in AAV-HBV mice, Example 1 (Compound 1 and siRNA-1); set-up: species or system Mouse: C57BL/6; conditions: plasma, follow-up to Day 189
Description: In vivo compound efficacy was evaluated in adeno-associated virus-hepatitis B virus (AAV-H-BV) mice. Materials and methods are presented below in tables 1-4. Table F describes the nucleic acid sequences used for siRNA-1, an siRNA. The sequences are described using modified nucleotide annotations found in Table B.
Live Phase Parameters: Based on plasma viral markers levels and body weight, 20 mice were selected and randomized into five groups for treatment. Checks were made for dead and/or moribund animals daily. Overt changes were recorded. Body weight was measured twice weekly during Day 0-97, and once weekly during Day 98-189.
Vehicle (Group 01) and Compound 1 at 55 mg/kg/dose (Groups 02, 04 and 05) were administered by oral gavage twice daily during Day 0-97. siRNA-1 at 5 mg/kg/dose was injected subcutaneously on Days 0, 14, 42 and 70 for Groups 03 and 04, and on Days 70, 84, and 102 for Group 05.
Plasma samples of 50 μL per mouse were prepared once weekly prior to dosing during Day 0-189. The samples were used for quantitative detections of HBsAg, HBeAg, and HBV DNA. Mice were sacrificed on Day 189.

| Compound | reduction of HBV DNA (HBV) | HBsAg effect after end of treatment (sustained or rebound) ([1]; FIGS. 3A-3B) | HBeAg effect after end of treatment (sustained or rebound) ([1]; FIGS. 4A-4B) |
| --- | --- | --- | --- |
| C=C[C@H](C)Nc1nc2c(c(=O)n1-c1ccc(C(=O)NC)cc1)C[C@@H](C)N(C(=O)c1ccc(Br)c(C(F)(F)F)c1)C2 [Compound 2, 4-((R)-7-(4-bromo-3-(trifluoromethyl)benzoyl)-2-(((S)-but-3-en-2-yl)amino)-6-methyl-4-oxo-5,6,7,8-tetrahydropyrido[3,4-d]pyrimidin-3(4H)-yl)-N-methylbenzamide] | good reduction of HBV DNA | – | – |
| siRNA-1: siRNA with SEQ ID NO: 2 (Sense) and SEQ ID NO: 3 (Antisense), modified nucleotides per Table B (sense mC*mC*mGmUfGmUfGfCfAmCmUmUmCmGmCmUmUmCmA; antisense mU*fG*mAmAfGmCmGfAmAmGmUmGmCfAmCmAfCmGmG*mU*mC) | – | rebound is observed | rebound is observed |
